Measurements taken from PubChem BioAssay AID1963825 (Molecular Pharmacology Branch, DTP, NCI, 2024).

Experiment: Anticancer human tumor 997537-175-T-J1-PDC patient-derived colon adenocarcinoma cell line growth inhibition [POLQ]
Details: 997537-175-T-J1-PDC complex spheroid viability, combination with POLQ inhibitors; for IC50: curve of first compound; for viability, T/C: stronger effect = lower value; active = viability on the fitted dose curve at most 10% of control; inactive = the rest
Summary of the method: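 Three-cell-type spheroids modelling solid tumor plus stroma served as the readout system; POL inhibitors were tested individually and in combination, concentration ranges set by clinical Cmax where known.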

[1] = second compound 0.0316 µM, first compound 0.0316 µM
[2] = second compound 0.0316 µM, first compound 0.1 µM
[3] = second compound 0.0316 µM, first compound 0.316 µM
[4] = second compound 0.0316 µM, first compound 1 µM
[5] = second compound 0.1 µM, first compound 0.0316 µM
[6] = second compound 0.1 µM, first compound 0.1 µM
[7] = second compound 0.1 µM, first compound 0.316 µM
[8] = second compound 0.1 µM, first compound 1 µM
[9] = second compound 0.316 µM, first compound 0.0316 µM
[10] = second compound 0.316 µM, first compound 0.1 µM
[11] = second compound 0.316 µM, first compound 0.316 µM
[12] = second compound 0.316 µM, first compound 1 µM
[13] = second compound 1 µM, first compound 0.0316 µM
[14] = second compound 1 µM, first compound 0.1 µM
[15] = second compound 1 µM, first compound 0.316 µM
[16] = second compound 1 µM, first compound 1 µM
[17] = second compound 3.16 µM, first compound 0.0316 µM
[18] = second compound 3.16 µM, first compound 0.1 µM
[19] = second compound 3.16 µM, first compound 0.316 µM
[20] = second compound 3.16 µM, first compound 1 µM
[21] = second compound 10 µM, first compound 0.0316 µM
[22] = second compound 10 µM, first compound 0.1 µM
[23] = second compound 10 µM, first compound 0.316 µM
[24] = second compound 10 µM, first compound 1 µM
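Also: luminescence signal used as a surrogate for viable cells; spheroids exposed to drugs for seven days before readout.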

CNCc1ccc(-c2[nH]c3cc(F)cc4c3c2CCNC4=O)cc1 + COC1C(OC(N)=O)C(O)C(Oc2ccc3c(O)c(NC(=O)c4ccc(O)c(CC=C(C)C)c4)c(=O)oc3c2C)OC1(C)C
inactive: viability, T/C [1] 104% | viability, T/C [2] 96.7% | viability, T/C [3] 90.3% | viability, T/C [4] 97.5% | viability, T/C (second compound 0.0316 µM, first compound 3.16 µM) 101% | viability, T/C (second compound 0.0316 µM, first compound 10 µM) 104% | viability, T/C [5] 102% | viability, T/C [6] 97% | viability, T/C [7] 80.2% | viability, T/C [8] 97.9% | viability, T/C (second compound 0.1 µM, first compound 3.16 µM) 103% | viability, T/C (second compound 0.1 µM, first compound 10 µM) 106% | viability, T/C [9] 100% | viability, T/C [10] 101% | viability, T/C [11] 93.6% | viability, T/C [12] 87% | viability, T/C (second compound 0.316 µM, first compound 3.16 µM) 95.5% | viability, T/C (second compound 0.316 µM, first compound 10 µM) 78.3% | viability, T/C [13] 94.7% | viability, T/C [14] 101% | viability, T/C [15] 101% | viability, T/C [16] 92.8% | viability, T/C (second compound 1 µM, first compound 3.16 µM) 99.3% | viability, T/C (second compound 1 µM, first compound 10 µM) 84.1% | viability, T/C [17] 97.8% | viability, T/C [18] 98.1% | viability, T/C [19] 104% | viability, T/C [20] 101% | viability, T/C (second compound 3.16 µM, first compound 3.16 µM) 85.8% | viability, T/C (second compound 3.16 µM, first compound 10 µM) 86.8% | viability, T/C [21] 99.5% | viability, T/C [22] 95.9% | viability, T/C [23] 105% | viability, T/C [24] 96.6% | viability, T/C (second compound 10 µM, first compound 3.16 µM) 97.5% | viability, T/C (second compound 10 µM, first compound 10 µM) 90.3%
> 10000 nM: IC50 (second compound 0.0316 µM) | IC50 (second compound 0.1 µM) | IC50 (second compound 0.316 µM) | IC50 (second compound 1 µM) | IC50 (second compound 3.16 µM) | IC50 (second compound 10 µM)

COc1cccc(OCCCN)c1-c1cc(Nc2cnc(C#N)cn2)n[nH]1 + COC1C(OC(N)=O)C(O)C(Oc2ccc3c(O)c(NC(=O)c4ccc(O)c(CC=C(C)C)c4)c(=O)oc3c2C)OC1(C)C
inactive: viability, T/C (second compound 0.0316 µM, first compound 0.00316 µM) 100% | viability, T/C (second compound 0.0316 µM, first compound 0.01 µM) 95.6% | viability, T/C [1] 59.9% | viability, T/C [2] 28.1% | viability, T/C [3] 33.6% | viability, T/C [4] 30.7% | viability, T/C (second compound 0.1 µM, first compound 0.00316 µM) 106% | viability, T/C (second compound 0.1 µM, first compound 0.01 µM) 64.9% | viability, T/C [5] 76.8% | viability, T/C [6] 43.2% | viability, T/C [7] 51.6% | viability, T/C [8] 17% | viability, T/C (second compound 0.316 µM, first compound 0.00316 µM) 107% | viability, T/C (second compound 0.316 µM, first compound 0.01 µM) 95% | viability, T/C [9] 63.8% | viability, T/C [10] 55.3% | viability, T/C [11] 16.9% | viability, T/C [12] 30.2% | viability, T/C (second compound 1 µM, first compound 0.00316 µM) 105% | viability, T/C (second compound 1 µM, first compound 0.01 µM) 88% | viability, T/C [13] 52.2% | viability, T/C [14] 24.1% | viability, T/C [15] 23.2% | viability, T/C [16] 24.4% | viability, T/C (second compound 3.16 µM, first compound 0.00316 µM) 104% | viability, T/C (second compound 3.16 µM, first compound 0.01 µM) 80.7% | viability, T/C [17] 55.8% | viability, T/C [18] 48.7% | viability, T/C [19] 28.6% | viability, T/C [20] 47.1% | viability, T/C (second compound 10 µM, first compound 0.00316 µM) 95.2% | viability, T/C (second compound 10 µM, first compound 0.01 µM) 79.8% | viability, T/C [21] 73.1% | viability, T/C [22] 31.4% | viability, T/C [23] 24.9% | viability, T/C [24] 28%
32.4 nM: IC50 (second compound 1 µM)
46.8 nM: IC50 (second compound 0.0316 µM)
59.9 nM: IC50 (second compound 10 µM)
121 nM: IC50 (second compound 0.1 µM)
77.8 nM: IC50 (second compound 0.316 µM)
57.5 nM: IC50 (second compound 3.16 µM)
